Measurements as given in publication PMC12121777 (PLOS One, 2025).
Values after ≈ are worked out from the molar mass of the structure shown. Where two headings read alike, the source gives them in different places.

Key:
Mtb 331/88 (i.e., H37Rv) = test: MIC, micro method in Šula's semisynthetic medium, drug-susceptible Mtb; format: cell-based, Mycobacterium tuberculosis; conditions: Mycobacterium tuberculosis, H37RV
[1] = test system: Mycobacterium avium 330/88; test: MIC, micro method in Šula's semisynthetic medium, M. avium; format: cell-based
[2] = test system: Mycobacterium kansasii 6509/96; test: MIC, micro method in Šula's semisynthetic medium, M. kansasii clinical isolate; format: cell-based; conditions: read-out: MIC M. kansasii 6509/96
Mtb H37Ra pVV2 = test: microbe, parasite or virus in culture; format: cell-based; conditions: Mycobacterium tuberculosis, 672 h, 28 days
Mtb H37Ra pVV2-dprE2 = test: microbe, parasite or virus in culture; format: cell-based; conditions: Mycobacterium tuberculosis, 672 h, 28 days
[3] = test system: Mtb H37Ra pVV2-dprE1/dprE2; test: microbe, parasite or virus in culture; format: cell-based; conditions: Mycobacterium tuberculosis, 672 h, 28 days
HepG2 cells = test: Cytotoxicity on HepG2 cell line (CellTiter 96); format: cell-based, human; conditions: Homo sapiens, HepG2, 24 h, read-out: IC50 HepG2
Danio rerio embryos = test: Fish embryo test (FET); format: in vivo; conditions: for mortality: as early as 48 h; for lethality: end of the 96 hours; for observed lethal endpoints: 0.001–100 µM, 96-hour exposure; for embryo coagulation, share of all observed endpoints: whole exposure period
Method: Fish maintenance. A day before the experiment, adult wild-type zebrafish (Danio rerio) were transferred into plastic spawning cages at the end of the 14-hour photoperiod. All fish were spawned at the onset of the following photoperiod. Fertilized eggs were collected within 30 minutes post-fertilization and inspected for health state and developmental stage using a stereomicroscope before exposure to 5g and 4h. Tested compounds were dissolved in DMSO; its concentration in 1 mM stock solution was 0.5%.
Fish embryo test (FET). Fish embryo tests were carried out using six different concentrations (0.001, 0.01, 0.1, 1, 10, and 100 μM) of each of the tested substances and controls over 96 hours at a constant temperature of 26.9°C (±1°C) under semi-static experimental set-up. The used medium was E3 according to Cold Spring Harbor Protocols (5 mM NaCl, 0.17 mM KCl, 0.33 mM CaCl2, 0.33 mM MgSO4). Each FET consists of 24 embryos per concentration, where each embryo is considered an individual replicate. Before the tests, all wells in the testing culture well plates were saturated by overnight incubation with corresponding concentrations of 5g and 4h. Before loading the embryos into the well plates, all solutions were replaced by freshly aerated ones with corresponding concentrations or controls. All solutions in the well plates were changed again after 48 hours of exposure to minimize a potential reduction in oxygen levels and compound concentration. Fish embryos were inspected and scored for mortality, morphological changes, or hatching success rates at 24-, 48-, 72-, and 96-hours post-exposure (hpe) under an inverted microscope (Olympus IX71; Olympus Czech Group, s.r.o., Czech Republic). […] In comparison, > 90% of the embryos in the positive control (3,4-dichloroaniline) were considered dead at the end of the 96-hour exposure. Morphological endpoints in our analysis were: (1) coagulation of fertilised eggs or developing embryos; (2) lack of somite formation; (3) lack of detachment of the tail bud from the yolk sac; (4) lack of heartbeat or heart defects (oedema); (5) malformations of body parts (head and tail region); (6) growth retardation. All morphological endpoints were used to determine the mortality (a positive endpoint means the embryo was considered dead).
For both compounds, the negative controls involved pure E3 medium and E3 medium containing 0.05% DMSO.

Mtb H37Rv = test: Metabolic labeling with 14C acetate and TLC lipid analysis; conditions: 10× and 100× MIC, 14C acetate, 24 h
Bacillus subtilis = test system: Bacillus subtilis; set-up: method as in PMID 30988267; conditions: cited from earlier work
Staphylococcus aureus = test system: Staphylococcus aureus; set-up: method as in PMID 30988267; conditions: cited from earlier work
Mtb = test system: Mtb; set-up: method as in PMID 33462533; conditions: cited from earlier work
[4] = 330/88, 336 h, read-out: MIC M. avium 330/88
[5] = 330/88, 504 h, read-out: MIC M. avium 330/88

| Compound | MIC (Mtb 331/88 (i.e., H37Rv); 336 h, 14 days) [µM] | MIC (Mtb 331/88 (i.e., H37Rv); 504 h, 21 days) [µM] | MIC [1, 4] [µM] | MIC [1, 5] [µM] | MIC ([2]; 6509/96, 168 h) [µM] | MIC ([2]; 6509/96, 336 h) [µM] | MIC ([2]; 6509/96, 504 h) [µM] | MIC (Mtb H37Ra pVV2) [µM] | MIC (Mtb H37Ra pVV2-dprE2) [µM] | MIC [3] [µM] | IC50 (HepG2 cells) [µM] | mortality at 1 µM (Danio rerio embryos) | mortality (Danio rerio embryos; 10 µM) [%] | mortality (Danio rerio embryos; 100 µM) [%] | lethality (Danio rerio embryos; 100 µM) [%] | observed lethal endpoints (Danio rerio embryos) | embryo coagulation, share of all observed endpoints (Danio rerio embryos) [%] | lipid profile of treated cells vs untreated cells (Mtb H37Rv) | MIC (Bacillus subtilis) [µg/mL] | further results |
| --- | --- | --- | --- | --- | --- | --- | --- | --- | --- | --- | --- | --- | --- | --- | --- | --- | --- | --- | --- | --- |
| CCCCCCCCNC(=O)NNC(=O)c1cc([N+](=O)[O-])cc([N+](=O)[O-])c1 [Compound 4h, 2-(3,5-Dinitrobenzoyl)-N-octylhydrazine-1-carboxamide] | 0.25 (≈ 0.0953 µg/mL) | 0.5 (≈ 0.191 µg/mL) | 125 (≈ 47.7 µg/mL) | 250 (≈ 95.3 µg/mL) | 1 (≈ 0.381 µg/mL) | 1 (≈ 0.381 µg/mL) | 1 (≈ 0.381 µg/mL) | < 0.5 | < 0.5 | > 2.5 | 136 | no significant mortality | 100 | 100 | 100 | embryo coagulation and growth retardation | > 35 | accumulation of TMM and TDM | – | MIC ([1]; 330/88, read-out: MIC M. avium): 125 to 250 µM (≈ 47.7 to 95.3 µg/mL) |
| CCCCCCCNc1nnc(-c2cc([N+](=O)[O-])cc([N+](=O)[O-])c2)o1 [Compound 5g, 5-(3,5-Dinitrophenyl)-N-heptyl-1,3,4-oxadiazol-2-amine] | ≤ 0.03 | ≤ 0.03 | 4 (≈ 1.4 µg/mL) | 8 (≈ 2.79 µg/mL) | ≤ 0.03 | 0.06 (≈ 0.021 µg/mL) | 0.125 (≈ 0.0437 µg/mL) | < 0.06 | < 0.06 | > 0.3 | > 100 | no significant mortality | 100 | 100 | 100 | pericardial oedema at lower concentrations and by growth retardation at higher concentrations | > 25 | accumulation of TMM and TDM | – | – |
| Cc1ccc(-c2nnc(NC(=O)c3ccc([N+](=O)[O-])cc3)o2)cc1 [IX] | – | – | – | – | – | – | – | – | – | – | – | – | – | – | – | – | – | – | 780 (≈ 2410 µM) | – |
| Cc1ccc(C(=O)Nc2nnc(-c3ccc(C)cc3)o2)cc1 [VIII] | – | – | – | – | – | – | – | – | – | – | – | – | – | – | – | – | – | – | – | MIC (Staphylococcus aureus): 1560 µg/mL (≈ 5320 µM) |
| O=C(Nc1nnc(COc2ccccc2)o1)c1ccc([N+](=O)[O-])cc1 [X] | – | – | – | – | – | – | – | – | – | – | – | – | – | – | – | – | – | – | 780 (≈ 2290 µM) | – |
| O=c1nc(N2CCN(CC3CCCCC3)CC2)sc2c([N+](=O)[O-])cc(C(F)(F)F)cc12 [macozinone] | – | – | – | – | – | – | – | – | – | – | – | – | – | – | – | – | – | – | – | MIC for Mtb (Mtb): 0.002 µM |
